Laboratory results from patent US9255257B2, “PmST1 mutants for chemoenzymatic synthesis of sialyl lewis X compounds” (THE REGENTS OF THE UNIVERSITY OF CALIFORNIA, priority 2011, dated 2016).

Key:
[1] = biological target: T1, Pasteurella multocida PmST1 mutant M144H of SEQ ID NO: 13 (M120H of Δ24PmST1, SEQ ID NO: 5) (Pasteurella multocida, UniProt Q15KI8, M144H); assay: CMP-Neu5Ac (donor) hydrolysis activity, capillary electrophoresis; type: biochemical; conditions: apparent, Tris-HCl pH 8.5, 37° C., 15 min
Procedure: (§1) Site-directed mutagenesis, expression and purification of PmST1 mutants. Site-directed mutagenesis was performed using the QuikChange multi-site-directed mutagenesis kit from Stratagene according to the manufacturer's protocol. The primers used were 5′-[…]-3′ (SEQ ID NO:35) for M144D; 5′-[…]a[…] -3′ (SEQ ID NO:36) for M144H; 5′-[…]-3′ (SEQ ID NO:37) for A35D; and 5′-[…]-3′ (SEQ ID NO:38) for A35H. The expression and purification of the mutants were performed as previously described for the WT PmST1 .
(§2) Kinetics of the donor hydrolysis activity of PmST1 and mutants by capillary electrophoresis analysis. […] The reactions were stopped by adding 10 μL of pre-chilled ethanol. The mixtures were incubated on ice for 30 min and centrifuged at 13,000 rpm for 5 min. The supernatants were diluted with borate buffer (25 mM, pH 9.5) and aliquotes of 5 μL each were injected to a Beckman Coulter P/ACE™ MDQ Capillary Electrophoresis system equipped with a capillary (60 cm×75 μm i.d.) and monitored at 254 nm. The apparent kinetic parameters were obtained by fitting the experimental data (the average values of duplicate assay results) into the Michaelis-Menten equation using Grafit 5.0.

[2] = biological target: T2, Pasteurella multocida PmST1 mutant M144D of SEQ ID NO: 13 (M120D of Δ24PmST1, SEQ ID NO: 3) (Pasteurella multocida, UniProt Q15KI8, M144D); assay: as above; type: biochemical; conditions: apparent, Tris-HCl pH 8.5, 37° C., 15 min
Procedure: as §1, §2

[3] = biological target: Pasteurella multocida α2-3-sialyltransferase 1 (PmST1), wild type (WT), SEQ ID NO: 13 (Pasteurella multocida, UniProt Q15KI8); conditions: apparent, donor, with LacβMU, read-out: Km for CMP-Neu5Ac; cited from earlier work
[4] = biological target: Pasteurella multocida PmST1 mutant D141A (Pasteurella multocida, UniProt Q15KI8, D141A); assay: CMP-Neu5Ac (donor) hydrolysis activity, capillary electrophoresis; conditions: apparent, Tris-HCl pH 8.5, 37° C., 40 min
[5] = biological target: T1, Pasteurella multocida PmST1 mutant M144H of SEQ ID NO: 13 (M120H of Δ24PmST1, SEQ ID NO: 5); assay: α2-3-sialyltransferase activity, LacβMU as acceptor; type: biochemical; conditions: apparent, donor, LacβMU 1 mM, Tris-HCl pH 8.5, 37° C.
Procedure: as §1
(§3) Kinetics of the α2-3-sialyltransferase activity of PmST1 mutants by HPLC analysis. With LacβMU as the acceptor substrate, the reactions were performed in duplicate at 37° C. for 10 min (M144D) or 4 min (M144H) in a reaction mixture (10 μL) containing Tris-HCl (100 mM, pH 8.5), an enzyme (5 μg mL^−1), and different concentrations (0.2, 0.5, 1.0, 2.0, and 5.0 mM) of LacβMU with a fixed concentration (1 mM) of CMP-Neu5Ac or different concentrations (0.2, 0.5, 1.0, 2.0, 5.0, and 10.0 mM) of CMP-Neu5Ac with a fixed concentration (1 mM) of LacβMU. With Le^xβMU as the acceptor substrate, the reactions were carried out in duplicate at 37° C. for 9 min (M144D) or 10 min (M144H) in a reaction mixture (10 μL) containing CAPSO (100 mM, pH 9.5), an enzyme (M144D, 39 μg mL^−1 or M144H, 5 μg mL^−), and various concentrations of Le^xβMU (1.0, 5.0, 10.0, 15.0, 25.0, and 35.0 mM) with a fixed concentration (1 mM) of CMP-Neu5Ac or various concentrations (0.2, 0.5, 1.0, 2.0, 5.0, 10.0, 20.0, and 40.0 mM) of CMP-Neu5Ac with a fixed concentration (1 mM) of Le^xβMU. Reactions were stopped by adding 10 μL of pre-chilled ethanol. The mixtures were incubated on ice for 30 min and centrifuged at 13,000 rpm for 5 min. The supernatants were diluted with 25% acetonitrile and kept on ice until aliquots of 8 μL were injected and analyzed by the Shimadzu LC-6AD system equipped with a membrane on-line degasser, a temperature control unit, and a fluorescence detector (Shimadzu RF-10AXL). A reverse-phase Premier C18 column (250×4.6 mm i.d., 5 μm particle size, Shimadzu) protected with a C18 guard column cartridge was used. The mobile phase was 25% acetonitrile. The fluorophore (MU)-labeled compounds were detected by excitation at 325 nm and emission at 372 nm. The apparent kinetic parameters were obtained by fitting the experimental data (the average values of duplicate assay results) into the Michaelis-Menten equation using Grafit 5.0.

[6] = biological target: T2, Pasteurella multocida PmST1 mutant M144D of SEQ ID NO: 13 (M120D of Δ24PmST1, SEQ ID NO: 3); assay: as above; type: biochemical; conditions: apparent, donor, LacβMU 1 mM, Tris-HCl pH 8.5, 37° C.
Procedure: as §1, §3

CC(=O)N[C@H]1[C@H]([C@H](O)[C@H](O)CO)O[C@](OP(=O)(O)OC[C@H]2O[C@@H](n3ccc(N)nc3=O)[C@H](O)[C@@H]2O)(C(=O)O)C[C@@H]1O [CMP-Neu5Ac]
kcat [1]: 71 ± 6 s⁻¹ | kcat [2]: 6.5 ± 0.1 s⁻¹ | Km [3]: 440 µM | kcat [4]: (2.5 ± 0.1) × 10^−2 s^−1 | kcat (CMP-Neu5Ac) [5]: 21 ± 1 s⁻¹ | kcat (CMP-Neu5Ac) [6]: 1.9 ± 0.1 s⁻¹
